Source: patent US6455589B1, “Primary N-hydroxylamines” (The Regents of the University of California, priority 1999, dated 2002)
“Also recorded” adds a separate entry of the source. Like-named read-outs stand apart in the source and are kept apart here. Each block holds one compound with its values, some of them ahead of it.

Columns and labels:
Aβ(1-40) = target: T1, Aβ(1-40) (Homo sapiens, UniProt P05067); assay: Inhibition of Aβ(1-40) beta-pleated sheet formation (Thioflavin T fluorescence); type: biochemical; settings: compound 10 μM, 12 hours
T1 construct: particularly the aggregated fibrils of synthetic Aβ(1-40)
T1 sequence (P05067 672-711 limits assumed): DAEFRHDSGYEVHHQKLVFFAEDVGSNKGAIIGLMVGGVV
Excerpt: The deposition of amyloid β-peptide (Aβ) is associated with the development of Alzheimer's disease. See, for example, G. G. Glenner et al. (1984) Biochem. Biophys. Res. Commun., 120:885-890; and R. E. Tanzi (1989) Ann. Med., 21:91-94. Accordingly, compounds which effectively disrupt the formation of Aβ(1-40) or Aβ(1-42) beta-pleated sheets are potentially useful for preventing and/or reversing such amyloid deposits. Thioflavin T (ThT) is known to rapidly associate with beta-pleated sheets, particularly the aggregated fibrils of synthetic Aβ(1-40). This association gives rise to a new excitation maximum at 440 nm and to enhanced emission at 490 nm.
The experiments are performed using a CytoFluor II fluorescence plate reader having the following parameters: Filters (Excitation and Emission)=440 nm/20 and 490 nm/40; Gain=75; Cycle to Cycle Time=30 min; Run Time=720 min (24 cycles) or dependent on exp. design; Plate=96 well. […] The fluorescence measurement begins when the Aβ(1-40) is added and continues for a total of 12 hours. The percent inhibition of beta-pleated sheet formation is calculated from the relative fluorescence unit difference between aggregation in the presence and in the absence of the test compounds.

IMR90 cells [1] = assay: Replicative life span of IMR90 cells (gain in PDLs, delay of senescence); type: cell-based, human; settings: for Toxicity to the cells: high concentrations (100 μM); for Gain in PDLs: continuous cultivation, compared to control untreated cells
Description: Cultivating IMR90 cells in culture—Normal human […] fibroblasts (IMR90) cells were obtained from the Coriell Institute for Medical Research at a population doubling level (PDL) of 10.85. The PDLs were calculated as log2(D/Do), where D and Do are defined as the density of cells at the time of harvesting and seeding, respectively. Stock cultures were grown in 100 mm Corning tissue culture dishes containing 10 ml of Dulbecco's modified Eagle's medium (DMEM) supplemented with 10% (V/V) fetal bovine serum (Hyclone). Stock cultures were split once a week when near confluence. Cells were harvested by trypsinization for 5 min at 37° C., immediately collected in 5 ml complete DMEM, washed once with 5 ml complete DMEM and incubated for 10-15 min at 37° C. to allow the cells to recover.
To test the effect of hydroxylamines on replicative life span, IMR90 cells were seeded at 0.5×106 per 100 mm dish. N-hydroxylamines (N-t-butyl hydroxylamine, N-benzyl hydroxylamine, N-methyl hydroxyl- amine) were added either individually (final concentration 10 or 100 μM) or in a combination of all three N-hydroxylamines (30 μM each). The cultures were split after 7 days and seeded with fresh medium supplemented with the hydroxylamines described above. In other experiments the medium of the cultures was replaced after 3 days of seeding with fresh medium and with fresh N-hydroxylamines, the split was done as usual after 7 days from seeding. The effect of PBN on life span was tested as in (5).

IMR90 cells [2] = assay: as above; type: cell-based, human; settings: 25 μM
[3] = mice; cited from earlier work
IMR90 cells [4] = assay: H2O2-induced senescence of IMR90 cells; type: cell-based, human; settings: 20 μM or 30 μM H2O2 once a week, cells continuously treated
Description: To determine the effect of H2O2 on the replicative life span, cells were first seeded with fresh medium with or without N-hydroxylamines (see above) for a week. Next, cells grown with or without N-hydroxylamines were each split into two additional groups and then either; 1) treated with 20 or 30 μM H2O2 or 2) without treatment with H2O2.

IMR90 cells [5] = assay: Steady state level of oxidants in IMR90 cells, DCFH oxidation by FACS; type: cell-based, human; settings: for DCFH, AFU/PDL (rate of DCFH oxidation per PDL): 100 μM, linear regression 26-50 PDLs; for Percent of decrease in the rate of oxidants formation from control: DCFH oxidation, continuous treatment
Description: (§1) Analysis of the age-dependent changes in the steady state level of oxidants and mitochondrial membrane potential in IMR90 cells by FACS—[…] were trypsinized and resuspended into complete DMEM. For each condition, two tubes were prepared with 1×10^6 cells each. Tubes were then spun at 250 g for 10 min at room temperature and supernatant was replaced with 1 ml of Hanks Balanced Salt Solution (HBSS) without Ca^++ or Mg^++. Rho123 (20 μl of 525 μM stock; 10.5 μM final concentration) was added to one tube and DCFH (20 μl of 1.25 mM stock; 25 μM final concentration) was added to the other tube. The cells were then incubated in the dark in a water bath at 37° C. for 30 min followed by cell resuspension and centrifugation at 250 g for 10 min at room temperature. The supernatant (500 μl) was removed from each tube and the cells were resuspended in the remaining 500 μl before FACS analysis on a FACSort analyzer (Becton Dickinson, San Jose, Calif.). Cell Quest was used for data acquisition and analysis. The data is reported as the mean of the channel of the fluorescence histogram obtained. Fluorescence output was calibrated with LinearFlow Green Flow cytometry Intensity Calibration Particles (Molecular Probes, Eugene, Oreg.).

IMR90 cells [6] = assay: Senescence-dependent change in mitochondria of IMR90 cells, Rho123 accumulation by FACS; type: cell-based, human; settings: for Rho123, AFU/PDL (rate of Rho123 accumulation per PDL): 100 μM, linear regression 26-50 PDLs; for Decrease of the rate of Rho123 accumulation as a function of senescence: vs control
Description: as §1

IMR90 cells [7] = assay: Cellular levels of GSH and GSSG in IMR90 cells (HPLC-EC); type: cell-based, human; settings: for GSH / GSH/GSSG / GSSG: 100 μM, 26-50 PDLs; for Increase of the GSH/GSSG ratio: vs control
Description: Measurement of cellular levels of GSH and GSSG in IMR90 cells—Cultivated IMR90 cells (≈3×10^6) were washed once in cold PBS and resuspended in 200 μl of ice cold MSA (0.2M MSA/0.5mM diethylenetriamine pentaacetic acid, DTPA) and allowed to stand for 10 min at room temperature. Denatured proteins were removed by centrifugation and the supernatant was filtered with 30,000 D MW cut-off Ultrafree filters (Millipore) before injection. Fifty microliters were injected and separated on an HPLC column (3-μm 0.46×15cm Suplecosil LC18-DB, Supelco, Bellefonte, Pa.) with a flow rate of 1 ml/min using a mobile phase consisting of 25mM NaH2PO4, 5 mM octane sulfonic acid, and 2% acetonitrile, adjusted to pH 2.7 with phosphoric acid (26). An ESA model 5100A Coulochem detector, 5020 guard cell and model 5010 analytical cell combination was used for analysis. Oxidation potentials of 900 mV, 400 mV and 880 mV were used for guard cell, electrode 1 and 2, respectively. Full-scale output was 10 μA and peak areas were compared using commercial GSH and GSSG as standards.

cytochrome c = assay: Auto-oxidation of cyt c^II and direct reduction of cytochrome c by N-hydroxylamines; type: biochemical
Description: In order to test the effect of N-hydroxylamines on the spontaneous oxidation of cytochrome c, a complete reduction of cyt c^III was achieved by incubating the X/XO system for 4-5 min at 25° C. Auto-oxidation of cyt c^II is associated with a decrease in absorbance at 550 nm. Reduced cytochrome c was incubated at 25° C. with or without 2 or 3 mM N-hydroxylamines and the auto-oxidation was followed by spectrophotometer. The rate of reduction of cytochrome c by different concentrations of each N-hydroxylamine was measured by the increase in absorbance at 550 nm.

IMR90 cells [8] = assay: Entry and concentration of N-t-butyl hydroxylamine in cells; type: in vitro ADME, human
[9] = Auto-oxidation in a cell free system; type: physicochemical
in vivo = settings: male, C57BL/6J and DBA/2J, mouse, in vivo
Description: C57BL/6J and DBA/2J male mice (35-40 g) are tested for the acute lethal effects of adriamycin and the prevention of acute lethality by pretreatment doses of subject hydroxylamines. Mice are injected i.p with either saline or subject hydroxylamines 30 minutes prior to administration of adriamycin.

Compound: CC(C)NO [Example 1, N-Isopropylhydroxylamine]
Inhibition of Aβ(1-40) beta-pleated sheet formation (Aβ(1-40)): inhibit

Inhibition of Aβ(1-40) beta-pleated sheet formation (Aβ(1-40)): inhibit
Compound: ONC1CCCCC1 [Example 3, N-Cyclohexylhydroxylamine]

Compound: CC1(C)CC(O)CC(C)(C)N1[O] [Example 4-OH-TEMPO, 4-hydroxy-2,2,6,6-tetramethylpiperidine-1-oxyl]
Delay of senescence of IMR90 cells (in words) (IMR90 cells [1]): none
Toxicity to the cells (IMR90 cells [1]): toxic
Delay of replicative senescence (IMR90 cells [2]): did not delay the replicative senescence

Compound: NO [HNHOH, hydroxylamine]
Anticancer activity [3]: possesses anticancer activity
Senescence [3]: delayed senescence

Compound: ONCc1ccccc1 [NBHA, N-benzyl hydroxylamine]
Delay of senescence of IMR90 cells (in words) (IMR90 cells [1]): active; also recorded: able to delay the senescence
H2O2-induced senescence (IMR90 cells [4]): attenuated
DCFH, AFU/PDL (rate of DCFH oxidation per PDL) (IMR90 cells [5]): 0.11 (0.08) AFU/PDL
Percent of decrease in the rate of oxidants formation from control (IMR90 cells [5]): 95%
Rho123, AFU/PDL (rate of Rho123 accumulation per PDL) (IMR90 cells [6]): 9.7 (0.86) AFU/PDL
Decrease of the rate of Rho123 accumulation as a function of senescence (IMR90 cells [6]): 69%
GSH (IMR90 cells [7]): 48.4 ± 3.4
GSH/GSSG (IMR90 cells [7]): 134.4
GSSG (IMR90 cells [7]): 0.36 ± 0.015
Increase of the GSH/GSSG ratio (IMR90 cells [7]): 90.4%

Compound: CNO [NMHA, N-methyl hydroxylamine]
Delay of senescence of IMR90 cells (in words) (IMR90 cells [1]): active; also recorded: able to delay the senescence
DCFH, AFU/PDL (rate of DCFH oxidation per PDL) (IMR90 cells [5]): 0.45 (0.3) AFU/PDL
Percent of decrease in the rate of oxidants formation from control (IMR90 cells [5]): 79%
Rho123, AFU/PDL (rate of Rho123 accumulation per PDL) (IMR90 cells [6]): 15.3 (0.86) AFU/PDL
Decrease of the rate of Rho123 accumulation as a function of senescence (IMR90 cells [6]): 52%
GSH (IMR90 cells [7]): 52.15 ± 6.7
GSH/GSSG (IMR90 cells [7]): 137.2
GSSG (IMR90 cells [7]): 0.38 ± 0.08
Increase of the GSH/GSSG ratio (IMR90 cells [7]): 94%

Concentration in the cells (IMR90 cells [8]): approximately 5 fold
Entry into the cells (IMR90 cells [8]): rapidly enters the cells
Stability to auto-oxidation [9]: stable to auto-oxidation
Compound: CC(C)(C)NO [NtBHA, N-t-butyl hydroxylamine]
Delay of senescence of IMR90 cells (in words) (IMR90 cells [1]): delays senescence
Gain in PDLs (IMR90 cells [1]; 10 μM): 5.8 PDLs
Gain in PDLs (IMR90 cells [1]; 100 μM (added once per 7 days)): 19.7 PDLs
Concentration required to delay senescence (gain in PDLs), relative to PBN (IMR90 cells [1]; vs PBN 200 μM): 20 times lower
H2O2-induced senescence (IMR90 cells [4]): attenuated
DCFH, AFU/PDL (rate of DCFH oxidation per PDL) (IMR90 cells [5]): 0.27 (0.32) AFU/PDL
Percent of decrease in the rate of oxidants formation from control (IMR90 cells [5]): 88%
Rho123, AFU/PDL (rate of Rho123 accumulation per PDL) (IMR90 cells [6]): 9.3 (0.85) AFU/PDL
Decrease of the rate of Rho123 accumulation as a function of senescence (IMR90 cells [6]): 70%
Direct reduction of cyt c^III to cyt c^II (cytochrome c): somewhat less efficient
GSH (IMR90 cells [7]): 49.5 ± 5.6
GSH/GSSG (IMR90 cells [7]): 123.8
GSSG (IMR90 cells [7]): 0.4 ± 0.045
Increase of the GSH/GSSG ratio (IMR90 cells [7]): 75%

Compound: NOCc1ccccc1 [O-benzyl hydroxylamine]
Delay of senescence of IMR90 cells (in words) (IMR90 cells [1]): accelerate senescence

Compound: CON [O-methyl hydroxylamine]
Delay of senescence of IMR90 cells (in words) (IMR90 cells [1]): accelerate senescence

Compound: CC(C)(C)ON [O-t-butyl hydroxylamine]
Delay of senescence of IMR90 cells (in words) (IMR90 cells [1]): accelerate senescence

Compound: CC1(C)CCCC(C)(C)N1[O] [TEMPO, 2,2,6,6-tetramethyl-piperidine-1-oxyl]
Delay of senescence of IMR90 cells (in words) (IMR90 cells [1]): none
Toxicity to the cells (IMR90 cells [1]): toxic
Delay of replicative senescence (IMR90 cells [2]): did not delay the replicative senescence

Compound: COc1cccc2c1C(=O)c1c(O)c3c(c(O)c1C2=O)C[C@@](O)(C(=O)CO)C[C@@H]3O[C@H]1C[C@H](N)[C@H](O)[C@H](C)O1 [adriamycin]
Acute lethality (dose range) (in vivo): 10 to 30 mg/kg
LD50 (in vivo): 25 mg/kg

Compound: O=C1O[C@H]([C@@H](O)CO)C(O)=C1O [ascorbic acid]
Delay of senescence of IMR90 cells (in words) (IMR90 cells [1]): none

Compound: O=Cc1ccccc1 [benzaldehyde]
Delay of senescence of IMR90 cells (in words) (IMR90 cells [1]): without effect or toxic at high concentrations
Delay of senescence of IMR90 cells (in words) (IMR90 cells [1]; listed as Benzaldehyde): without effect and in high concentrations was toxic

Compound: CC(C)(C)N=O [tNB, nitroso-tert-butane]
Effect on IMR90 cells (IMR90 cells [1]; 10 μM in medium): no effect

Compound: catalase
Delay of senescence of IMR90 cells (in words) (IMR90 cells [1]): none

Compound: vitamin E
Delay of senescence of IMR90 cells (in words) (IMR90 cells [1]): none
